From ChEMBL document CHEMBL1201862, “PubChem BioAssay data set” (2004) come the findings set out here.

The structures appear in SMILES notation.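 Step 1: Grow cells in 96-well plates. Step 2: Expose to compound for 48 hours at 5 concentrations. Step 3: Interpolate endpoints linearly; if unreached, use highest concentration. GI50 = concentration required for 50% inhibition of growth.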 Calls of active or inactive are those of the source. Rule as the data show it: active = GI50 up to about 1.1 µM and inactive = higher.

Test systems include RXF 393; 786-0; KM12; Hs-578T; MOLT-4; SR; HOP-92; SK-MEL-5; Malme-3M; LOX IMVI; OVCAR-3; UO-31; BT-549; NCI-H460; EKVX; UACC-62; PC-3; NCI-H226; SF-268; HCT-15.
Assay in all cases: inhibition of tumour cell growth, NCI panel, 48 h

As for `COC(=O)N1C2C(C[C@@]1(C)C(=O)OC)c1ccccc1N2S(=O)(=O)c1ccccc1` (stereo not given in full), the GI50 with RXF 393, in the test on 786-0, with KM12, in the test with Hs-578T, in the test with MOLT-4 and in the test with SR was > 100 µM (inactive) in each case. Also, the GI50 in the test with HOP-92, with SK-MEL-5, in the test with Malme-3M, in the test with LOX IMVI, with OVCAR-3 and in the test with UO-31 was > 100 µM (inactive) in each case. Moreover, the GI50 in the test with BT-549, in the test with NCI-H460, in the test on EKVX, with UACC-62, in the test with PC-3 and with NCI-H226 was > 100 µM (inactive) throughout. The GI50 in the test with SF-268 is > 100 µM (inactive).
For the compound `O=C1C2C=CC1C1C(=O)OC(=O)C21` (stereo not given), the GI50 in the test on 786-0, in the test on KM12, with Hs-578T, with MOLT-4, in the test with SR and in the test on HOP-92 was > 100 µM (inactive) each time. In addition, the GI50 with SK-MEL-5, in the test on Malme-3M, in the test with LOX IMVI, in the test with OVCAR-3, in the test on UO-31 and with BT-549 was > 100 µM (inactive) each time. The GI50 was > 100 µM in the test with HCT-15; > 100 µM (inactive) in the test with NCI-H460; > 100 µM (inactive) in the test on EKVX; > 100 µM (inactive) with UACC-62; > 100 µM (inactive) in the test with PC-3; > 100 µM (inactive) in the test with NCI-H226. The GI50 with SF-268 was > 100 µM (inactive).
In the case of `CC1OC(O[C@H]2CC[C@]3(C)[C@H]4CC=C5[C@@H]6[C@@H](C)[C@H](C)CC[C@]6(C(=O)OC6OC(CO)C(O)C(O)C6O)CC[C@@]5(C(=O)O)[C@]4(C)CC[C@H]3C2(C)C)C(O)C(O)C1O` (stereo not given in full), the GI50 in the test on RXF 393, in the test with 786-0, in the test on KM12, with Hs-578T, with MOLT-4 and with SR was > 100 µM (inactive) throughout. Moreover, the GI50 in the test on HOP-92, in the test with SK-MEL-5, with LOX IMVI, in the test on OVCAR-3, in the test with UO-31 and in the test on BT-549 was > 100 µM (inactive) each time. In addition, the GI50 with HCT-15 is > 100 µM; in the test on NCI-H460, > 100 µM (inactive); with UACC-62, > 100 µM (inactive); with PC-3, > 100 µM (inactive); in the test on SF-268, > 100 µM (inactive).
For `O=C(c1ccccc1)c1ccc2[nH]c(-c3c(Cl)c(Cl)c(Cl)c(Cl)c3C(=O)N/N=C/c3cccc(Oc4ccccc4)c3)nc2c1`, the GI50 in the test with RXF 393 is 68.2 µM (inactive); in the test on 786-0 it was > 100 µM (inactive); with KM12 it was > 100 µM (inactive); in the test with Hs-578T, > 100 µM (inactive); with MOLT-4, 50.4 µM (inactive); with SR it was 36.3 µM (inactive). Besides, the GI50 in the test with HOP-92 was 55.7 µM (inactive); in the test on SK-MEL-5 it was 90.6 µM (inactive); in the test on Malme-3M, > 100 µM (inactive); in the test on LOX IMVI, > 100 µM (inactive); in the test with OVCAR-3 it was 75.7 µM (inactive); in the test on UO-31, > 100 µM (inactive). Also, the GI50 was 93.8 µM (inactive) in the test with BT-549; 45.4 µM in the test with HCT-15; > 100 µM (inactive) in the test with EKVX; 77.4 µM (inactive) in the test on PC-3; 84.1 µM (inactive) in the test on NCI-H226; 76.7 µM (inactive) in the test on SF-268.
`C=CC(Br)(CBr)CCC(Br)C(C)(C)Cl` (stereo not given): the GI50 with RXF 393 is 2.99 µM (inactive); in the test with 786-0, 2.35 µM (inactive); with KM12, 1.6 µM (inactive); in the test on Hs-578T it was 3.4 µM (inactive); with MOLT-4 it was 0.555 µM (active); in the test on SR, 1.66 µM (inactive). Besides, the GI50 is 2.04 µM (inactive) with HOP-92; 7.76 µM (inactive) in the test on SK-MEL-5; 6.27 µM (inactive) in the test with Malme-3M; 2.23 µM (inactive) in the test with OVCAR-3; 1.65 µM (inactive) in the test with UO-31; 6.52 µM (inactive) in the test on BT-549. For the same compound, the GI50 in the test with HCT-15 was 2.58 µM; in the test with NCI-H460 it was 2.21 µM (inactive); in the test on EKVX, 8.18 µM (inactive); with UACC-62, 4.78 µM (inactive); in the test on PC-3, 3.27 µM (inactive); in the test on NCI-H226 it was 25.3 µM (inactive). In addition, in the test on SF-268, the GI50 was 2.02 µM (inactive).
Consider `COc1ccc2oc(=N)c(C(N)=S)cc2c1`, for which the GI50 was 17 µM (inactive) in the test on RXF 393; 23.9 µM (inactive) in the test with 786-0; 22.2 µM (inactive) in the test on KM12; 23.2 µM (inactive) with Hs-578T; 20 µM (inactive) in the test on MOLT-4; 20 µM (inactive) with SR. Moreover, the GI50 with HOP-92 is 24 µM (inactive); with SK-MEL-5 it was 13.6 µM (inactive); in the test on Malme-3M, 14.1 µM (inactive); with LOX IMVI, 15.4 µM (inactive); in the test with UO-31, 19.6 µM (inactive); in the test with BT-549, 18.5 µM (inactive). For the same compound, the GI50 in the test with HCT-15 is 17.5 µM; with NCI-H460, 16.9 µM (inactive); in the test on EKVX it was 29.6 µM (inactive); in the test on UACC-62, 16 µM (inactive); in the test on PC-3 it was 27.5 µM (inactive); in the test with NCI-H226, 19.9 µM (inactive). Also, in the test with SF-268, the GI50 is 15.5 µM (inactive).
For `C[C@]12Cc3cnc(-c4ccccc4)nc3C[C@@H]1CC[C@@H]1[C@@H]2CC[C@@]2(C)[C@H]1CC[C@]2(C)O`, the GI50 is 10.2 µM (inactive) in the test on 786-0; 13.9 µM (inactive) in the test on KM12; 17.4 µM (inactive) in the test with Hs-578T; 34.3 µM (inactive) in the test with MOLT-4; 6.59 µM (inactive) in the test with SR; 22.8 µM (inactive) in the test on HOP-92. In addition, the GI50 is 17.7 µM (inactive) in the test with SK-MEL-5; 18.9 µM (inactive) in the test with Malme-3M; 4.6 µM (inactive) in the test with LOX IMVI; 23.5 µM (inactive) in the test on OVCAR-3; 3.03 µM (inactive) in the test with UO-31; 23 µM (inactive) in the test with BT-549. Moreover, the GI50 was 9.44 µM in the test with HCT-15; 17.3 µM (inactive) in the test with NCI-H460; 25.2 µM (inactive) in the test on EKVX; 11.2 µM (inactive) in the test on UACC-62; 13.9 µM (inactive) in the test on PC-3; 26.1 µM (inactive) in the test on NCI-H226. For the same compound, the GI50 in the test on SF-268 was 12.9 µM (inactive).
As to `CC(C)(C)OC(=O)N(CCCCNC(=O)C(F)(F)F)CCCNC(=O)C(F)(F)F`, the GI50 with RXF 393, in the test with 786-0, in the test on KM12, with Hs-578T, in the test with MOLT-4 and in the test with SR was > 100 µM (inactive) in each case. The GI50 with HOP-92 is > 100 µM (inactive); with SK-MEL-5, > 100 µM (inactive); in the test on OVCAR-3 it was > 100 µM (inactive); in the test on UO-31, > 100 µM (inactive); with BT-549 it was > 100 µM (inactive); in the test with HCT-15 it was > 100 µM. Further, the GI50 in the test on NCI-H460, in the test on EKVX, with UACC-62, with PC-3, in the test with NCI-H226 and in the test with SF-268 was > 100 µM (inactive) in each case.
As to `NC(Cc1ccc(O)cn1)C(=O)NC(C(=O)O)c1ccccc1` (stereo not given), the GI50 with RXF 393, with 786-0, in the test on KM12, in the test with Hs-578T, in the test with MOLT-4 and in the test with SR was > 100 µM (inactive) in each case. Besides, the GI50 with HOP-92, with SK-MEL-5, in the test with Malme-3M, with LOX IMVI, in the test on OVCAR-3 and in the test with UO-31 was > 100 µM (inactive) throughout. The GI50 in the test with BT-549 was > 100 µM (inactive); in the test with HCT-15, > 100 µM; with NCI-H460, > 100 µM (inactive); in the test with EKVX it was > 100 µM (inactive); with PC-3, > 100 µM (inactive); in the test on NCI-H226 it was > 100 µM (inactive). Moreover, the GI50 in the test on SF-268 was > 100 µM (inactive).
As to `NS(=O)(=O)c1ccc(/N=N/c2ccc(O)c(O)c2)cc1`, the GI50 with RXF 393 was 17.7 µM (inactive); in the test with 786-0, 12.4 µM (inactive); in the test on KM12, 11.7 µM (inactive); with Hs-578T, 20 µM (inactive); in the test on MOLT-4, 3.79 µM (inactive); in the test on SR it was 3.05 µM (inactive). For the same compound, the GI50 in the test with HOP-92 was 23.7 µM (inactive); in the test on SK-MEL-5, 6.19 µM (inactive); in the test with Malme-3M it was 21.3 µM (inactive); in the test on LOX IMVI, 15 µM (inactive); in the test with OVCAR-3, 24.3 µM (inactive); with UO-31 it was 11.2 µM (inactive). Further, the GI50 is 2.58 µM (inactive) in the test on BT-549; 3.18 µM in the test with HCT-15; 19.9 µM (inactive) with NCI-H460; 46.2 µM (inactive) with EKVX; 20.6 µM (inactive) in the test on PC-3; 14.5 µM (inactive) with NCI-H226. Further, in the test with SF-268, the GI50 is 14.5 µM (inactive).
Consider `O=c1c2cc(I)ccc2nc(SCc2nnco2)n1Cc1ccccc1`, for which the GI50 in the test on RXF 393 was 58.1 µM (inactive); with 786-0, 35.7 µM (inactive); in the test with KM12 it was > 100 µM (inactive); in the test on Hs-578T, 31.7 µM (inactive); in the test on MOLT-4 it was 0.1 µM (active); with SR it was > 100 µM (inactive). Also, the GI50 in the test on HOP-92 is 35.6 µM (inactive); in the test on SK-MEL-5, > 100 µM (inactive); in the test with LOX IMVI it was > 100 µM (inactive); with OVCAR-3, > 100 µM (inactive); in the test on UO-31, 1.39 µM (inactive); in the test with BT-549 it was > 100 µM (inactive). The GI50 was > 100 µM with HCT-15; > 100 µM (inactive) in the test on NCI-H460; 29 µM (inactive) in the test on EKVX; 73.8 µM (inactive) with UACC-62; > 100 µM (inactive) with PC-3; > 100 µM (inactive) in the test on NCI-H226. For the same compound, the GI50 in the test with SF-268 was > 100 µM (inactive).
